T1: CEA on LoVo colorectal tumour cells (CEA positive) (human, UniProt P06731 35-685, GPI anchor on the C-terminal residue; heavily N-glycosylated on cells)
T1 construct: also called CEA positive LoVo cells; LoVo, CEA bearing, tumour cells
T1 sequence: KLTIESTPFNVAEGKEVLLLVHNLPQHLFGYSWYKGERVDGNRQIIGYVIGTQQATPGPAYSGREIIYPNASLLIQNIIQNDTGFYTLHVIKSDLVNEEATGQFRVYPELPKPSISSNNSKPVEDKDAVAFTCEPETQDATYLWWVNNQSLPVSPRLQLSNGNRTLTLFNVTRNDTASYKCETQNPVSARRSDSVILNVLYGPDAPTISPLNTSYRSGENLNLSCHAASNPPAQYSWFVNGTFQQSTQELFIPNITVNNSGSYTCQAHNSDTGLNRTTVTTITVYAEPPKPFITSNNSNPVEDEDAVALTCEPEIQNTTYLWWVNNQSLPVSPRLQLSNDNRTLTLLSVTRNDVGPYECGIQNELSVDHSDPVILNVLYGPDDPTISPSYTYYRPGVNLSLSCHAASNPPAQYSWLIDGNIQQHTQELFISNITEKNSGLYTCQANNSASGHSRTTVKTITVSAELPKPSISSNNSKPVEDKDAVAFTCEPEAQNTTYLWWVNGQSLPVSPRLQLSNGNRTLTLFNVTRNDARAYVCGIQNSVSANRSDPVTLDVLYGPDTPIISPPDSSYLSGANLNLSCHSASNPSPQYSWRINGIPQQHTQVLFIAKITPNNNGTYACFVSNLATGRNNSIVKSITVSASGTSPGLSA

T2: human carcinoembryonic antigen (CEA) (human, UniProt P06731 35-685, limits assumed)
T2 construct: CEA as coated on the ELISA plate; also called Carcinoma Embryonic Antigen
T2 sequence (looked up): T1 sequence

B1: (A5B7 Fab-CPG2)2 fusion protein (other)
heavy: EVKLVESGGGLVQPGGSLRLSCATSGFTFTDYYMNWVRQPPGKALEWLGFIGNKANGYTTEYSASVKGRFTISRDKSQSILYLQMNTLRAEDSATYYCTRDRGLRFYFDYWGQGTTLTVSSASTKGPSVFPLAPCSRSTSESTAALGCLVKDYFPEPVTVSWNSGALTSGVHTFPAVLQSSGLYSLSSVVTVPSSNFGTQTYTCNVDHKPSNTKVDKTVGGGGSGGGGSGGGGSQKRDNVLFQAATDEQPAVIKTLEKLVNIETGTGDAEGIAAAGNFLEAELKNLGFTVTRSKSAGLVVGDNIVGKIKGRGGKNLLLMSHMDTVYLKGILAKAPFRVEGDKAYGPGIADDKGGNAVILHTLKLLKEYGVRDYGTITVLFNTDEEKGSFGSRDLIQEEAKLADYVLSFEPTSAGDEKLSLGTSGIAYVQVQITGKASHAGAAPELGVNALVEASDLVLRTMNIDDKAKNLRFQWTIAKAGQVSNIIPASATLNADVRYARNEDFDAAMKTLEERAQQKKLPEADVKVIVTRGRPAFNAGEGGKKLVDKAVAYYKEAGGTLGVEERTGGGTDAAYAALSGKPVIESLGLPGFGYHSDKAEYVDISAIPRRLYMAARLIMDLGAGK
light: QTVLSQSPAILSASPGEKVTMTCRASSSVTYIHWYQQKPGSSPKSWIYATSNLASGVPARFSGSGSGTSYSLTISRVEAEDAATYYCQHWSSKPPTFGGGTKLEIKRTVAAPSVFIFPPSDEQLKSGTASVVCLLNNFYPREAKVQWKVDNALQSGNSQESVTEQDSKDSTYSLSSTLTLSKADYEKHKVYACEVTHQGLSSPVTKSFNRGEC
notes: Two Fab-CPG2 units dimerise non-covalently through CPG2 (about 180 kDa); Tested as cell culture supernatant (COS-7 or recombinant Colo320DM / LoVo cells); also called (A5B7-CPG2 R6)2 fusion protein; (A5B7-CPG2)2 fusion protein

Key:
[1] = test system: non-transfected HCT116 cells; assay type: cell-based; settings: read-out: IC50 (concentration required to inhibit cell growth by 50%)
[2] = test system: HCT116 cells transfected with the antibody-CPG2 fusion protein gene; assay type: cell-based
[3] = test system: HCT116 tumours established from transfected HCT116 cells; assay: Anti-tumour activity in HCT116 tumours from transfected cells; assay type: in vivo, athymic nude mice; settings: PGP i.p., 3 doses at hourly intervals, 5-25 mg kg^-1, vs PBS
Procedure: (§1) HCT116 tumour cells transfected with the antibody-CPG2 fusion protein gene or control non-transfected HCT116 tumour cells are injected subcutaneously into athymic nude mice (10^7 tumour cells per mouse). When the turnours are 5-7 mm in diameter the PGP prodrug is administered i.p. to the mice (3 doses at hourly intervals over 2 h in dose ranges of 5-25 mg kg^−1). The anti-tumour effects are judged by measuring the length of the tumours in two directions and calculating the tumour volume using the formula: […]
(§2) where D is the larger diameter and d is the smaller diameter of the tumour.
(§3) Tumour volume is expressed relative to the tumour volume at the time the PGP prodrug is administered. The anti-tumour activity is compared to a control group receiving either transfected or non-transfected tumour cells and PBS ([…], 3.4 mM KCl, 12 mM Na2HPO4 and 1.8 mM KH2PO4, pH 7.2) instead of the PGP prodrug.

[4] = test system: HCT116 tumours established from non-transfected cells; assay: Anti-tumour activity in HCT116 tumours from non-transfected cells; assay type: in vivo, athymic nude mice; settings: PGP i.p., 3 doses at hourly intervals, 5-25 mg kg^-1
Procedure: as §1, §2, §3

[5] = test system: LoVo cells transfected with an antibody-CPG2 fusion protein gene; assay: In vitro prodrug killing, LoVo cells transfected with antibody-CPG2 fusion protein gene; assay type: cell-based
[6] = test system: non-transfected LoVo cells; assay: In vitro prodrug killing, non-transfected LoVo cells; assay type: cell-based
[7] = test system: LoVo tumours established from recombinant LoVo cells or recombinant Lovo/Parental LoVo cell mixes; assay: Anti-tumour activity in LoVo tumours expressing the antibody-CPG2 fusion protein; assay type: in vivo, athymic nude mice
Procedure: (§4) Recombinant LoVo (A5B7-CPG2)2 fusion protein expressing tumour cells or mixes of recombinant and parental LoVo cells were injected subcutaneously into athymic nude mice as described in Example 9.
(§5) When the tumours are 5-7 mm in diameter the PGP prodrug is administered i.p. to the mice (3 doses in DMSO/0.15 M sodium bicarbonate buffer at hourly intervals over 2 h in dose ranges of 40-80 mg kg^−1).
(§6) Anti-tumour effects are judged by measuring the length of the tumours in two directions and calculating the tumour volume using the formula
(§7) where D is the larger diameter and d is the smaller diameter of the tumour. Tumour volume may be expressed relative to the tumour volume at the time the PGP prodrug is administered or alternatively the median tumouT volumes may be calculated. The anti-tumour activity is compared to control groups receiving either transfected or non-transfected tumour cells and buffer without PGP prodrug.

[8] = test system: LoVo tumours established from non-transfected cells; assay: Anti-tumour activity in LoVo tumours from non-transfected cells; assay type: in vivo, athymic nude mice; settings: PGP i.p., 3 doses at hourly intervals, 40-80 mg kg^-1
Procedure: as §4, §5, §6, §7

[9] = test system: established HCT116 tumours produced from non-transfected HCT116 cells; assay: Anti-tumour activity, fusion gene vector injected intra-tumourally into established HCT116 tumours, then PGP; assay type: in vivo, athymic nude mice; settings: PGP after 1-3 days, vs PBS
Procedure: (§8) Thus non-transfected HCT116 cells are injected into athymic nude mice (1×10^7 tumour cells per mouse) and once the tumours are 5-7 mm in diameter the vector containing the antibody-enzyme fusion protein gene is injected intra-tumourally. After 1-3 days to allow the antibody-enzyme fusion protein to be expressed by and bind to the HCT116 tumour cells, the PGP prodrug is administered as described above.

[10] = test system: established LoVo tumours produced from non-transfected parental LoVo cells; assay: Anti-tumour activity, fusion gene vector injected intra-tumourally into established LoVo tumours, then PGP; assay type: in vivo, athymic nude mice; settings: PGP after 1-3 days, vs controls
Procedure: as §8, with “non-transfected LoVo” for “non-transfected HCT116”, “expressed by,” for “expressed by”, “bind to,” for “bind to”, “the LoVo” for “the HCT116”

[11] = target: T1, CEA on LoVo colorectal tumour cells …; assay: cell based ELISA on fixed cells, anti-human kappa HRP detection, OD 490 nm
Procedure: 100 µl of 6% formaldehyde was diluted in DMEM and left for 1 hour at 4°. Plates were centrifuged and washed 3 times in PBS containing 0.05% Tween™ by immersion soaking (first two washes for 2 minutes and the final wash for 5 minutes).
Colour was allowed to develop for about 5 min, stopped with 75 μl per well of 2M H_2SO_4 and OD read at 490 nm.

[12] = target: T2, human carcinoembryonic antigen (CEA); assay: CEA ELISA, COS-7 supernatant, anti-human kappa or anti-CPG2 reporter antibody
Procedure: For the CEA ELISA each well of a 96 well immunoplate (NUNC MAXISORB™) was coated with 50 ng CEA in 50 mM carbonate/bicarbonate coating buffer pH9.6 (buffer capsules—Sigma C3041) and incubated at 4° overnight. The plate was washed three times with PBS-TWEEN™ (PBS+ 0.05% TWEEN™ 20) and then blocked 150 μl per well of 1% BSA in PBS-TWEEN™ for 1 hour at room temperature. The plate was washed three times with PBS-TWEEN™, 100 μl of test sample added per well and incubated at room temperature for 2 hours. […] The plate was washed three times with PBS-TWEEN™ and then once more with PBS. To detect binding, add 100 μl per well of developing solution (one capsule of phosphate-citrate buffer—Sigma P4922—dissolved in 100 ml H_2O to which is added one 30 mg tablet o-phenylenediamine dihydrochloride—Sigma P8412) and incubated for up to 15 minutes. The reaction was stopped by adding 75 μl 2M H_2SO_4, and absorbance read at 490 nm.
The CEA ELISA using an anti CPG2 reporter antibody was essentially as above but instead of HRPO-labelled goat anti-human kappa antibody an 1/1000 dil. of a rabbit anti-CPG2 polyclonal sera was added, in 1% BSA in PBS-TWEEN™ and incubated at room temperature on a rocking platform for at 2 hours. The plate was washed three times with PBS-TWEEN™. […] The reaction was stopped by adding 75 μl 2M H_2SO_4, and absorbance read at 490 nm.

Molecule	IC50 [1]	sensitivity of transfected compared to non-transfected HCT116 cells in terms of cell killing [2]	IC50 ([2]; read-out: IC50 (concentration required to inhibit cell growth by 50%))	anti-tumour effect [3]	anti-tumour activity [4]	conversion of prodrug into active drug by cells ([5]; transfected LoVo cells)	sensitivity of transfected compared to non-transfected LoVo cells in terms of cell killing ([5]; transfected vs non-transfected LoVo)	conversion of prodrug into active drug by cells [6]	tumour growth delay ([7]; 60 mg/kg doses of prodrug, FIG. 5)	median tumour volume relative to initial size ([7]; 60 mg/kg doses of prodrug, day 16 post-dose, FIG. 5)	anti-tumour effect ([7]; PGP i.p., 3 doses at hourly intervals, 40-80 mg kg^-1, vs controls)	anti-tumour activity [8]	anti-tumour activity [9]	anti-tumour activity [10]	binding result [11]	binding result [12]
O=C(O)CC[C@H](NC(=O)Oc1ccc(N(CCCl)CCCl)cc1)C(=O)O [PGP, N-(4-[N,N-bis(2-chloroethyl)amino]-phenoxycarbonyl)-L-glutamic acid]	~200 µM	over 100 fold	~1 µM	significant anti-tumour effect	no significant anti-tumour activity	can convert the PGP prodrug into the more potent active drug	over 100 fold	unable to convert the prodrug	≥ 11 days	3 times their initial size	significant anti-tumour effect	no significant anti-tumour activity	significant anti-tumour activity	significant anti-tumour activity		
B1															binds	binds
